The record followed here is patent US7235299B2, “Beads of a phenolic compound and a method of obtaining same” (Rhodia Chimie, priority 2002, dated 2007).

The conditions of data set [1]: acrylic acid at 20° C.
The conditions of data set [2]: methyl methacrylate at 20° C.

The structures appear in SMILES notation.

With `Oc1ccc(O)cc1` [crystalline hydroquinone, hydroquinone], in data set [1], the “dissolution time in acrylic acid” value is 10 min. For the same compound, the “dissolution time in methyl methacrylate” value in data set [2] is 3 min.
